This is an account of results in paper PMC6211276, “Computer-aided molecular design of pyrazolotriazines targeting glycogen synthase kinase 3” (Journal of Enzyme Inhibition and Medicinal Chemistry, 2018).

For series [1], the target named is T1, GSK-3β (Homo sapiens, UniProt P49841). Description: Inhibition of GSK-3β (Kinase-Glo luminescent assay). The class given is biochemical. Also noted: purchased Millipore (Millipore Ibérica SAU). The conditions noted are these: for GSK-3 inhibition at a fixed compound concentration: fixed compound concentration of 10 μM; for IC50: mean of three independent determinations, 1 μM ATP. On the procedure: Human recombinant GSK-3β and the pre-phosphorylated polypeptide substrate were purchased from Millipore (Millipore Ibérica SAU). Kinase-Glo Luminescent Kinase Assay was obtained from Promega (Promega Biotech Ibérica, SL)[29]. ATP and all other reagents were from Sigma Aldrich (St. Louis, MO). Assay buffer contained 50 mM HEPES (pH 7.5), 1 mM EDTA, 1 mM EGTA, and 15 mM magnesium acetate.
The method of Baki et al. was followed to analyse the inhibition of GSK-3β[30]. Kinase-Glo assays were performed in assay buffer using black 96-well plates. In a typical assay, 10 μL (10 μM) of test compound (dissolved in dimethyl sulfoxide [DMSO] at 1 mM concentration and diluted in advance in assay buffer to the desired concentration) and 10 μL (20 ng) of enzyme were added to each well followed by 20 μL of assay buffer containing 25 μM substrate and 1 μM ATP. […] After 30 min incubation at 30 °C, the enzymatic reaction was stopped with 40 μL of Kinase-Glo reagent. Glow-type luminescence was recorded after 10 min using a FLUOstar Optima (BMG Labtechnologies GmbH, Offenburg, Germany) multimode reader. The activity is proportional to the difference of the total and consumed ATP. The inhibitory activities were calculated based on maximal activities measured in the absence of inhibitor.

A short description of series [2]: In vitro parallel artificial membrane permeability assay (PAMPA-BBB). The conditions noted are these: for Papp at 4 h: pig, PAMPA, pH 7.4; for BBB prediction: predictive penetration in the CNS from PAMPA-BBB Pe; for ability to cross the BBB by passive permeation: prediction from PAMPA-BBB Pe. The procedure:
Prediction of the brain penetration was evaluated using a parallel artificial membrane permeability assay (PAMPA). Ten commercial drugs, phosphate buffer saline solution at pH 7.4 (PBS), ethanol, and dodecane were purchased from Sigma Aldrich, Across organics and Fluka. […] Filter PDVF membrane units (diameter 30 mm, pore size 0.45 μm) from Symta were used to filter the samples. A 96-well plate UV, (Thermoscientific, Varioskan Lux multimode microplate reader) was used for the UV measurements. […] Then 100 μL of this compound stock solution was taken, and 1400 μL of ethanol and 3500 μL of PBS pH 7.4 buffer were added to reach 30% of ethanol concentration in the experiment. These solutions were filtered. The acceptor 96-well microplate was filled with 180 μL of PBS:ethanol (70:30). The donor 96-well plate was coated with 4 μL of porcine brain lipid in dodecane (20 mg mL^−1), and after 5 min, 180 μL of each compound solution was added. Then 1−2 mg of every compound to be determined for their ability to pass the brain barrier were dissolved in 1500 μL of ethanol and 3500 μL of PBS pH 7.4 buffer, filtered, and then added to the donor 96-well plate. […] During this time, the compounds diffused from the donor plate through the brain lipid membrane into the acceptor plate. After incubation, the donor plate was removed. The concentration of compounds and commercial drugs in the acceptor and the donor wells was determined by UV plate reader. Every sample was analysed at three to five wavelengths, in three wells and in three independent runs. […] Ten quality control compounds (previously mentioned) of known BBB permeability were included in each experiment to validate the analysis set.

Series [3] has as its target T1, GSK-3β. Description: Kinetic studies on GSK-3β (ADP-Glo Kinase Assay, varying ATP). The conditions noted are these: inhibitor at 0.5 and 1 μM, ATP 1 to 50 μM, GS-2 constant at 12.5 μM; Lineweaver–Burk. The class given is biochemical. On the procedure:
To investigate the inhibitory mechanism of compounds 5 on GSK-3β, several kinetic experiments were performed using the ADP-Glo Kinase Assay. Kinetic experiments varying both ATP (from 1 to 50 μM) and the inhibitor (at 0.5 and 1 μM) concentrations were performed, while the concentration of GS-2 was kept constant at 12.5 μM.
A general note: ADP-Glo turns the ADP formed in a reaction into a luminescent signal.

For another series, the system named is SH-SY5Y cells. In words: Okadaic acid-induced tau hyperphosphorylation cell model (MTT cell viability). Format: cell-based, human. The following applies: for cell viability (MTT test) in OA-induced neurodegeneration cell model: compound 10 µM for 1 h, then OA 30 nM for 24 h. The procedure: Human SH-SY5Y cells were grown in DMEM supplemented with 10% FBS and 1% penicillin/streptomycin at 37 °C and 5% CO2 in an incubator. SH-SY5Y cells were seeded onto 96-well plate at 60.000 cells per well. 48 h later, cells were pre-incubated with the compounds at the desired concentration for 1 h and after that time okadaic acid (OA) (Sigma Aldrich, catalogue no: 09381) was added at a concentration of 30 nM and incubated for another 24 h. Afterwards, cells were incubated with 0.5 mg mL^−1 MTT solution for at least 4 h at 37 °C and 5% CO2. Then culture media was removed and the formazan crystals attached to the bottom of the plate were dissolved with 200 µL of DMSO. Finally, UV-absorbance was measured at 595 nm in a microplate reader (Varioskan Flash Microplate reader, Thermo Scientific).
(In general: Tetrazolium assays rely on reduction of a dye to a coloured formazan, in cell work by metabolically active cells.)

The conditions of series [4]: PAMPA-BBB, reported permeability; cited from earlier work.

T1 sequence (P49841 whole entry): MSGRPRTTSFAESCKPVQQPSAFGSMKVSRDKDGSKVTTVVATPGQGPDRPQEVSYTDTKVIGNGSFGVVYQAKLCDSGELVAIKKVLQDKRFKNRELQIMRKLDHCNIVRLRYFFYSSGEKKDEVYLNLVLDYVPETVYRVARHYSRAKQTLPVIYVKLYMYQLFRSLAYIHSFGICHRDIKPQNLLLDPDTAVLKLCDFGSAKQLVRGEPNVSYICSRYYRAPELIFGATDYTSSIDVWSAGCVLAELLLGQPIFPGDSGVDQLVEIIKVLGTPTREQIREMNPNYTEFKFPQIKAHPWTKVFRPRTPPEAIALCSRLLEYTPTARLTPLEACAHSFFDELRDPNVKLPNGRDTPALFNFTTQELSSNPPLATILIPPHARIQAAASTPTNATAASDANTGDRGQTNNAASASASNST

Regarding `O=c1[nH]nnc2c1cnn2-c1ccccc1` [4a], the “GSK-3 inhibition at a fixed compound concentration” value on GSK-3β [1] was “inactive”.
With `O=c1[nH]nnc2c1cnn2-c1ccc(F)cc1` [4e], on GSK-3β [1], the “GSK-3 inhibition at a fixed compound concentration” value was “inactive”.
`CCOC(=O)c1c2nn[nH]c(=O)c2nn1-c1ccccc1` [5a, ethyl 4-oxo-6-phenyl-4,6-dihydro-3H-pyrazolo[4,3-d][1,2,3]triazine-7-carboxylate] had a melting point of 191.5 to 193 °C. In addition, in series [2], the apparent permeability (Papp) at 4 h is 1.1 ± 0.6 ×10⁻⁶ cm/s and the BBB prediction result was “CNS−”. Inhibition at GSK-3β [1] was half-maximal at 4 ± 0.2 µM (IC50).
On to `CCOC(=O)c1c2nn[nH]c(=O)c2nn1-c1ccc(C)cc1` [5b, ethyl 4-oxo-6-(p-tolyl)-4,6-dihydro-3H-pyrazolo[4,3-d][1,2,3]triazine-7-carboxylate], for which the melting point was in the range of 193 to 196 °C. In addition, the “type of inhibition on GSK-3” value on GSK-3β [3] is listed as “ATP-competitive”. In series [2], the Papp at 4 h is 2.3 ± 0.3 ×10⁻⁶ cm/s and the BBB prediction entry is recorded as “CNS+/−”. For the same compound, in the series with SH-SY5Y cells, the “cell viability (MTT test) in OA-induced neurodegeneration cell model” value (“cell viability (MTT test)” below) is listed as “able to increase the cell viability”. This compound also yielded an IC50 at GSK-3β [1] of 0.9 ± 0.1 µM.
In the case of `CCOC(=O)c1c2nn[nH]c(=O)c2nn1-c1ccc(OC)cc1` [5c, ethyl 6-(4-methoxyphenyl)-4-oxo-4,6-dihydro-3H-pyrazolo[4,3-d][1,2,3]triazine-7-carboxylate], the melting point is 194 °C (dec.). In series [2], the Papp at 4 h is 1.6 ± 0.5 ×10⁻⁶ cm/s and the BBB prediction entry is on record as “CNS+/−”. Also, the IC50 on GSK-3β [1] was 1.7 ± 0.3 µM.
For `CCOC(=O)c1c2nn[nH]c(=O)c2nn1-c1ccc(Cl)cc1` [5e, ethyl 6-(4-chlorophenyl)-4-oxo-4,6-dihydro-3H-pyrazolo[4,3-d][1,2,3]triazine-7-carboxylate], the melting point is 198 °C (dec.). In series [2], the Papp at 4 h was 2.9 ± 0.7 ×10⁻⁶ cm/s, the “ability to cross the BBB by passive permeation” value (shortened to “ability to cross the BBB”) is reported as “in the limit of a positive prediction” and the BBB prediction result is “CNS+/−”. Further, it took 3.3 ± 0.3 µM to reach half-maximal inhibition at GSK-3β [1] (IC50).
`CCOC(=O)c1c2nn[nH]c(=O)c2nn1-c1ccc(Br)cc1` [5f, ethyl 6-(4-bromophenyl)-4-oxo-4,6-dihydro-3H-pyrazolo[4,3-d][1,2,3]triazine-7-carboxylate]: the melting point is 195 °C (dec.). In addition, in series [2], the Papp at 4 h came out at 3.2 ± 0.1 ×10⁻⁶ cm/s, the “ability to cross the BBB” value was “would be able to cross the BBB by passive permeation” and the BBB prediction entry is “CNS+ (CNS + when they present a permeability >3.1 × 10^−6 cm s^−1)”. The “cell viability (MTT test)” value in the series on SH-SY5Y cells was “able to increase the cell viability”. The compound also showed an IC50 against GSK-3β [1] of 1.4 ± 0.4 µM.
Regarding `CCOC(=O)c1c2nn[nH]c(=O)c2nn1-c1ccc(I)cc1` [5g, ethyl 6-(4-iodophenyl)-4-oxo-4,6-dihydro-3H-pyrazolo[4,3-d][1,2,3]triazine-7-carboxylate], the melting point was 198 °C (dec.). In series [2], the Papp at 4 h turned out to be 5 ± 1 ×10⁻⁶ cm/s, the “ability to cross the BBB” value was “would be able to cross the BBB by passive permeation” and the BBB prediction result is recorded as “CNS+ (CNS + when they present a permeability >3.1 × 10^−6 cm s^−1)”. In addition, in the series with SH-SY5Y cells, the “cell viability (MTT test)” value is “able to increase the cell viability”. Besides, on GSK-3β [1], the IC50 is 0.8 ± 0.2 µM.
Consider `Cn1c(=O)c2c(ncn2C)n(C)c1=O` [Caffeine, reference compound], for which the Papp at 4 h in series [2] amounted to 1.1 ± 0.4 ×10⁻⁶ cm/s.
Same read-out and setting: for `CNCCCN1c2ccccc2CCc2ccccc21` [Desipramine, reference compound] the value was 10.4 ± 0.1 ×10⁻⁶ cm/s.
On the same count and under the same terms, for `CCn1cc(C(=O)O)c(=O)c2cc(F)c(N3CCNCC3)nc21` [Enoxacine, reference compound] the value was 1.1 ± 0.6 ×10⁻⁶ cm/s.
In the case of `C=C1[C@@H](O)[C@@H]2O[C@]3(CC[C@H](/C=C/[C@@H](C)[C@@H]4CC(C)=C[C@@]5(O[C@H](C[C@@](C)(O)C(=O)O)CC[C@H]5O)O4)O3)CC[C@H]2O[C@@H]1[C@@H](O)C[C@H](C)[C@H]1O[C@@]2(CCCCO2)CC[C@H]1C` [OA, okadaic acid, reference compound], in the series on SH-SY5Y cells (OA at 30 nM, MTT), the “decrease in cell viability” value was “higher than 70%”.
With `CN1C(C(=O)Nc2ccccn2)=C(O)c2ccccc2S1(=O)=O` [Piroxicam], the Pe bibli. in series [4] is on record as 2.5 10^−6 cm s^−1.
In the case of `CN(C)CCCN1c2ccccc2Sc2ccccc21` [Promazine, reference compound], the Papp at 4 h in series [2] was found to be 8.4 ± 0.3 ×10⁻⁶ cm/s. Besides, the Pe bibli. in series [4] was 8.8 10^−6 cm s^−1.
Turning to `Cn1sc(=O)n(Cc2ccccc2)c1=O` [TDZD-8, reference compound], in the series on SH-SY5Y cells, the “cell viability (MTT test)” value was “increase the cell viability”.

In general, Papp refers to the rate of passage across a membrane or cell layer, normalised by area and donor concentration. A higher Papp goes with fast passage. For orientation: melting point means the temperature, or range, at which the solid turns liquid. As a reminder, the IC50 is the point on the concentration scale where inhibition reaches its midpoint.
